Key:
Assay type in all cases: cell-based
[1] = target: BaF3 cell lines stably transfected with kinase EGFR L858R (Homo sapiens, UniProt P00533, L858R, cells depend on it); assay: Growth inhibition of BaF3 cell line stably transfected with kinase EGFR L858R (MTS); settings: 48 h, read-out: growth inhibitory activity IC50, L858R
Description: (§1) Biological Activity Assay: Growth Inhibitory Activity of Compounds on Cell Lines Stably Transfected with Kinase
(§2) The activity of compounds against various mutants of kinase EGFR was evaluated by their effect of inhibiting growth of BaF3 cell lines stably transfected with kinase. The specific test method was given as follows:
(§3) 1) Culture medium: DMEM (Dulbecco's modified eagle medium) or RPMI 1640 (containing 10% fetal bovine serum, 100 μg/mL ampicillin, 100 μg/mL streptomycin).
(§4) 2) Reagent: MTS reaction solution (containing 2 mg/mL of MTS [3-(4,5-di methylthiazol-2-yl)-5-(3-carboxymethoxyphenyl)-2-(4-sulfophenyl)-2H-tetrazolium, inner Salt]; 100 μg/mL of PES (phenazine […])).
(§5) 3) Compound test: cells were incubated into a 96-well culture plate, the volume of cytosol was 90 μL, and then 10 μL of the compound at each gradient concentration was added. That is, the highest concentration was 10 μM, which was diluted stepwise by ⅓, and 8 concentration points were set in total; 0.1% DMSO (dimethyl sulfoxide) was contained in the system. The cell plate with uniformly mixed compound was cultured in a cell culture incubator (37° C.; 5% […]) for 48 h, then 20 μL of MTS reaction solution was added, uniformly mixed and incubated in the cell culture incubator (37° C.; 5% CO2) for 1-4 h; OD values at 490 nm were measured by a microplate reader (VARIOSKAN FLASH, Thermo). Two parallels were set in each group of experiments, with 0.1% (a final concentration) DMSO as a negative control, and a culture medium without cells and compounds as a blank control. The cell growth inhibition rate was calculated by the following formula: Cell growth inhibition rate %=1−(ODexperimental group−ODblank group)/(ODnegative group−ODblank group)×100%.
(§6) 4) IC50 calculation: The semi-inhibitory concentration of the compounds acting on cells was calculated using GradPad Prism 5 software according to the measured cell growth inhibition rate.

[2] = target: BaF3 cell lines stably transfected with kinase EGFR L858R/T790M/C797S (Homo sapiens, UniProt P00533, T790M/C797S/L858R, cells depend on it); assay: Growth inhibition of BaF3 cell line stably transfected with kinase EGFR L858R/T790M/C797S (MTS); settings: 48 h, read-out: growth inhibitory activity IC50, L858R/T790M/C797S
Description: as §1, §2, §3, §4, §5, §6

[3] = target: BaF3 cell lines stably transfected with kinase EGFR L858R/T790M (Homo sapiens, UniProt P00533, T790M/L858R, cells depend on it); assay: Growth inhibition of BaF3 cell line stably transfected with kinase EGFR L858R/T790M (MTS); settings: 48 h, read-out: growth inhibitory activity IC50, L858R/T790M
Description: as §1, §2, §3, §4, §5, §6

[4] = target: BaF3 cell lines stably transfected with kinase EGFR Del/T790M (Homo sapiens, UniProt P00533, T790M, cells depend on it, form not given); assay: Growth inhibition of BaF3 cell line stably transfected with kinase EGFR Del/T790M (MTS); settings: 48 h, read-out: growth inhibitory activity IC50, Del/T790M
Description: as §1, §2, §3, §4, §5, §6

[5] = target: BaF3 cell lines stably transfected with kinase EGFR Del/T790M/C797S (Homo sapiens, UniProt P00533, T790M/C797S, cells depend on it, form not given); assay: Growth inhibition of BaF3 cell line stably transfected with kinase EGFR Del/T790M/C797S (MTS); settings: 48 h, read-out: growth inhibitory activity IC50, Del/T790M/C797S
Description: as §1, §2, §3, §4, §5, §6

[6] = target: BaF3 cell lines stably transfected with kinase EGFR Del (Homo sapiens, UniProt P00533, cells depend on it, form not given); assay: Growth inhibition of BaF3 cell line stably transfected with kinase EGFR Del (MTS); settings: 48 h, read-out: growth inhibitory activity IC50, Del
Description: as §1, §2, §3, §4, §5, §6

BaF3 cell lines stably transfected with kinase EGFR L858R/T790M, sequence (P00533 whole entry T790M/L858R): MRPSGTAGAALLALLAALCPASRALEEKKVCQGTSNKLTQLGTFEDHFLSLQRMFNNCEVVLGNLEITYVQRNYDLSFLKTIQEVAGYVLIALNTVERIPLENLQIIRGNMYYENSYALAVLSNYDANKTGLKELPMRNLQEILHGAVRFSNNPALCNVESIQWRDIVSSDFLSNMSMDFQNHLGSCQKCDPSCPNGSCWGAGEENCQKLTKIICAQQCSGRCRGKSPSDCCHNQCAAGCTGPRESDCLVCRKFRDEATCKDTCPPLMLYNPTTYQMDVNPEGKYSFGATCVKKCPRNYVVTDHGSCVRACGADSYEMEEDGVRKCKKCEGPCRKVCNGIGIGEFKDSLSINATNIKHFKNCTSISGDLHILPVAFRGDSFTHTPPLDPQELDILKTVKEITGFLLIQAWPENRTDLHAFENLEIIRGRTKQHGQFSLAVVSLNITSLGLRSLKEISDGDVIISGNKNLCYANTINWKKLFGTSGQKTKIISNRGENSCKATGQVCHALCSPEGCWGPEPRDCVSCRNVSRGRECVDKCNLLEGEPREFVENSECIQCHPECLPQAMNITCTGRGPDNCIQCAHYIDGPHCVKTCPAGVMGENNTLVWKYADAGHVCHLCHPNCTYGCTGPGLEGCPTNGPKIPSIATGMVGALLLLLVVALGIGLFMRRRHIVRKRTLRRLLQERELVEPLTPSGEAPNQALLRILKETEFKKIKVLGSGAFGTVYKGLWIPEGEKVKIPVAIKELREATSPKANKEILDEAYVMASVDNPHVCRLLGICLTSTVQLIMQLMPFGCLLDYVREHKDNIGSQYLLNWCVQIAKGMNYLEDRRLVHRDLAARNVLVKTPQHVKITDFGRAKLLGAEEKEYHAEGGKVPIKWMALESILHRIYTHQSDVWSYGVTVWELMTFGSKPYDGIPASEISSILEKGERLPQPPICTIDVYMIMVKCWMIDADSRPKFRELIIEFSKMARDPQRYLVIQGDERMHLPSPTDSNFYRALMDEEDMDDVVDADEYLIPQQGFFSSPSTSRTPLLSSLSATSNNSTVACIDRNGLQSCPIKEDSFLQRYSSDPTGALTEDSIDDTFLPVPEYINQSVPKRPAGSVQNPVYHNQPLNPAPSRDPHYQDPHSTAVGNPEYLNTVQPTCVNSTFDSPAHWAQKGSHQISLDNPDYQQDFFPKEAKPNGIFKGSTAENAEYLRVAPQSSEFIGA
BaF3 cell lines stably transfected with kinase EGFR Del/T790M/C797S, sequence (P00533 with tags, fused parts or gaps DEL746-750/T790M/C797S, form open): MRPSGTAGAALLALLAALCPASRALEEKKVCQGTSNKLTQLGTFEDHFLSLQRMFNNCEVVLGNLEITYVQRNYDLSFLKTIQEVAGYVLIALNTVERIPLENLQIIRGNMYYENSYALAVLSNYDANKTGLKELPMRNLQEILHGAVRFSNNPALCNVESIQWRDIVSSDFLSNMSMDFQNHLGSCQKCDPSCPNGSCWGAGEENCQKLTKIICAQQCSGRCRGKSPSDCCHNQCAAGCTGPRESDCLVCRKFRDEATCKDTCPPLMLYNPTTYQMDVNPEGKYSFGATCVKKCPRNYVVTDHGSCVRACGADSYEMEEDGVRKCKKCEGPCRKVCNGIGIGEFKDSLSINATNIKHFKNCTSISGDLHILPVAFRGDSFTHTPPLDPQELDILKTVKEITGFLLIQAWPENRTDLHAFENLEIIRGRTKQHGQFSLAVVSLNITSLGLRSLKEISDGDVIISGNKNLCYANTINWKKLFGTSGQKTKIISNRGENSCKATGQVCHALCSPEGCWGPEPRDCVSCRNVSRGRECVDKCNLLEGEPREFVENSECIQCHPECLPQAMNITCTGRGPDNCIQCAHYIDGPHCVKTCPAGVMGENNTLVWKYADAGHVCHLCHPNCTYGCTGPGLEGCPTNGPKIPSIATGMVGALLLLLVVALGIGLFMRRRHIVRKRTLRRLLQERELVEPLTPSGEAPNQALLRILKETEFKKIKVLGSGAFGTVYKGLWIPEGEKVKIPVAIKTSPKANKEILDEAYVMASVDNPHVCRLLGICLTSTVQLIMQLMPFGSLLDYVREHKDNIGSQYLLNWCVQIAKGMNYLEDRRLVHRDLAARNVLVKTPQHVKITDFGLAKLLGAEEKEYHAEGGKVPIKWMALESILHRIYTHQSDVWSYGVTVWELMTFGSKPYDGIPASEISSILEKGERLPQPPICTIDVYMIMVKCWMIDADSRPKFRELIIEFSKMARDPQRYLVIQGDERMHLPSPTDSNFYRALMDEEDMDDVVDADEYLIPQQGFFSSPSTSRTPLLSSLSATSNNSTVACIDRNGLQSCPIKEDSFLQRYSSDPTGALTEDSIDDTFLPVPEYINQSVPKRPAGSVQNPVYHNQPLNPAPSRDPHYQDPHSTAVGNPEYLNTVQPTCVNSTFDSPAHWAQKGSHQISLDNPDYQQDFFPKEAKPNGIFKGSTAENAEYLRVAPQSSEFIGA
BaF3 cell lines stably transfected with kinase EGFR L858R/T790M/C797S, sequence (P00533 whole entry T790M/C797S/L858R): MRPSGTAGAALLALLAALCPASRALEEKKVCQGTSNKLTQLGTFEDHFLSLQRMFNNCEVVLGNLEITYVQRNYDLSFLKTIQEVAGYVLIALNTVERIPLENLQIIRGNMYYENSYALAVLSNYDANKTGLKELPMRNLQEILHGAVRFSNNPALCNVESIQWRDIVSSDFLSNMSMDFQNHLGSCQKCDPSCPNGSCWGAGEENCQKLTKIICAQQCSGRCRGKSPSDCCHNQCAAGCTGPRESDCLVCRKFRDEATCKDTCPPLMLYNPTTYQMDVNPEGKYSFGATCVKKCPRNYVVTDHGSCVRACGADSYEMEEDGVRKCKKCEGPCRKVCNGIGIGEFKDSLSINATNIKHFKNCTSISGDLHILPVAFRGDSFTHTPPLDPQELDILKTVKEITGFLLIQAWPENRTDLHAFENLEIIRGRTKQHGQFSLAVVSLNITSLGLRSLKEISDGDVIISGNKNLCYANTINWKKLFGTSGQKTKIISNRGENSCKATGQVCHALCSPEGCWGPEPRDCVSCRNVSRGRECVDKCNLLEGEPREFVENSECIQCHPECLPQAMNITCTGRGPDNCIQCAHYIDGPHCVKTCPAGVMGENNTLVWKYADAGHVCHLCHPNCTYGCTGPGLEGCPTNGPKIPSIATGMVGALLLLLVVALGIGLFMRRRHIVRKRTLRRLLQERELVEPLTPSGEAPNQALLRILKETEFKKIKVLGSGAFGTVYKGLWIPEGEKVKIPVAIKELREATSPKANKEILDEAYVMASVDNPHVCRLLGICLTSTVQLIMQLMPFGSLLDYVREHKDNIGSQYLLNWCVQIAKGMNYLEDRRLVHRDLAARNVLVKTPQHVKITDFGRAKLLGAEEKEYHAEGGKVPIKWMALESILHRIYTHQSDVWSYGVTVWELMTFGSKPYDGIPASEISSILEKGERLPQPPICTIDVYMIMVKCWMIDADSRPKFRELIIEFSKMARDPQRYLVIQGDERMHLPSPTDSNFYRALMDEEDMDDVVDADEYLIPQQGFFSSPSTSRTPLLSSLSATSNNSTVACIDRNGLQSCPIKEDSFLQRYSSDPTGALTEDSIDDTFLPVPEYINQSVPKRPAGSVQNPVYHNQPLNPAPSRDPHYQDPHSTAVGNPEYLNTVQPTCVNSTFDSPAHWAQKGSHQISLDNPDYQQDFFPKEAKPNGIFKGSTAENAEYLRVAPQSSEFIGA
BaF3 cell lines stably transfected with kinase EGFR Del, sequence (P00533 with tags, fused parts or gaps DEL746-750): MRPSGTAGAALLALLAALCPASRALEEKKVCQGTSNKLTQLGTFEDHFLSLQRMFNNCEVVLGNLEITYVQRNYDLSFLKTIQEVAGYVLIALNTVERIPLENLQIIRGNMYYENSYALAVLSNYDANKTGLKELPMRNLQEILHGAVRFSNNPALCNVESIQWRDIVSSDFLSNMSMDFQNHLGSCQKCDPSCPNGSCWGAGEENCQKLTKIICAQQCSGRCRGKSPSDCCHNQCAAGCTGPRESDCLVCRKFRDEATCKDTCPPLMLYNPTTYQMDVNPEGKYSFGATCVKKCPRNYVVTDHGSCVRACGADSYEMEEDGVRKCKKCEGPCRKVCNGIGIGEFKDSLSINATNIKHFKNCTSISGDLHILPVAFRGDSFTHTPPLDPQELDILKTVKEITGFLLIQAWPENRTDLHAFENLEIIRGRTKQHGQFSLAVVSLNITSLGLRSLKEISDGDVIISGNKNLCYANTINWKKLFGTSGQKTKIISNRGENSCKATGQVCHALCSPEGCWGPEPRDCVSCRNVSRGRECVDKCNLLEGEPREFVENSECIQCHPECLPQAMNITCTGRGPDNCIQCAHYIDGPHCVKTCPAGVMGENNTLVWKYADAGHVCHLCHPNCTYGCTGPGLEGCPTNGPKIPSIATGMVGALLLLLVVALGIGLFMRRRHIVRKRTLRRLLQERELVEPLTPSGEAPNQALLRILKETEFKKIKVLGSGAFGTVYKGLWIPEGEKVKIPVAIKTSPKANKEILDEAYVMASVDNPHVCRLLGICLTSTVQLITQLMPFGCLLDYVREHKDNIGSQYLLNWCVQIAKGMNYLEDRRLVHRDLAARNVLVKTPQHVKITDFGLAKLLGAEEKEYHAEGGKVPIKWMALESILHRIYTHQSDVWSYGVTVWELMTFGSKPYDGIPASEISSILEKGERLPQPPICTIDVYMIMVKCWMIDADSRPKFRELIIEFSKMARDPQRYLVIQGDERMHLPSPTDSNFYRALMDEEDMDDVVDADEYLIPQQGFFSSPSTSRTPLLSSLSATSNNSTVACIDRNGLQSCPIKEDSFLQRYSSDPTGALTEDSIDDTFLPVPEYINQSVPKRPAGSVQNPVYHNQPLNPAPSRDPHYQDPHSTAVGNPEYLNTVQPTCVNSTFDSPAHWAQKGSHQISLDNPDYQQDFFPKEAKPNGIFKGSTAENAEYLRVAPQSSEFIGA

Row | Compound | GI50 [1] | GI50 [2] | GI50 [3] | GI50 [4] | GI50 [5] | GI50 [6]
1 | C=Cc1cnc(Nc2cc(CC)c(N3CCC(N(C)C)CC3)cc2OC)nc1Nc1ccc2nccnc2c1P(C)(C)=O [Compound I-2] | ≤ 0.05 µM | ≤ 0.05 µM | ≤ 0.05 µM | ≤ 0.05 µM | ≤ 0.05 µM | ≤ 0.05 µM
2 | C=Cc1cnc(Nc2cc(CC)c(N3CCC(C(C)C)C3)cc2OC)nc1Nc1ccc2nccnc2c1P(C)(C)=O (stereo not drawn) [Compound I-3] | ≤ 0.05 µM | ≤ 0.05 µM | 0.05 to 0.5 µM | ≤ 0.05 µM | ≤ 0.05 µM | 0.05 to 0.5 µM
3 | C=Cc1cnc(Nc2cc(CC)c(N3CCN(C)CC3)cc2OC)nc1Nc1ccc2nccnc2c1P(C)(C)=O [Compound I-4] | ≤ 0.05 µM | ≤ 0.05 µM | ≤ 0.05 µM | ≤ 0.05 µM | ≤ 0.05 µM | ≤ 0.05 µM
4 | C=Cc1cnc(Nc2cc(CC)c(N3CCC(N4CCN(C)CC4)CC3)nc2OC)nc1Nc1ccc2nccnc2c1P(C)(C)=O [Compound I-5] | ≤ 0.05 µM | ≤ 0.05 µM | ≤ 0.05 µM | ≤ 0.05 µM | ≤ 0.05 µM | ≤ 0.05 µM
5 | C=Cc1cnc(Nc2cc(CC3CC3)c(N3CCC(N4CCN(C)CC4)CC3)cc2OC)nc1Nc1ccc2nccnc2c1P(C)(C)=O [Compound I-7] | ≤ 0.05 µM | ≤ 0.05 µM | ≤ 0.05 µM | ≤ 0.05 µM | ≤ 0.05 µM | ≤ 0.05 µM
6 | CCc1cc(Nc2ncc(/C=C/C3CC3)c(Nc3ccc4nccnc4c3P(C)(C)=O)n2)c(OC)cc1N1CCC(N2CCN(C)CC2)CC1 [Compound I-11] | ≤ 0.05 µM | 0.05 to 0.5 µM | 0.05 to 0.5 µM | 0.05 to 0.5 µM | 0.05 to 0.5 µM | ≤ 0.05 µM
7 | CCc1cc(Nc2ncc(C3=CCCC3)c(Nc3ccc4nccnc4c3P(C)(C)=O)n2)c(OC)cc1N1CCC(N2CCN(C)CC2)CC1 [Compound I-13] | ≤ 0.05 µM | 0.05 to 0.5 µM | 0.05 to 0.5 µM | 0.05 to 0.5 µM | 0.05 to 0.5 µM | ≤ 0.05 µM
8 | CCc1cc(Nc2ncc(/C=C/c3ccccc3)c(Nc3ccc4nccnc4c3P(C)(C)=O)n2)c(OC)cc1N1CCC(N2CCN(C)CC2)CC1 [Compound I-14] | ≤ 0.05 µM | 0.05 to 0.5 µM | 0.5 to 2.5 µM | 0.05 to 0.5 µM | 0.05 to 0.5 µM | 0.05 to 0.5 µM
9 | C=C(C)c1cnc(Nc2cc(CC)c(N3CCC(N4CCN(C)CC4)CC3)cc2OC)nc1Nc1ccc2nccnc2c1P(C)(C)=O [Compound I-15] | ≤ 0.05 µM | ≤ 0.05 µM | ≤ 0.05 µM | ≤ 0.05 µM | ≤ 0.05 µM | ≤ 0.05 µM
10 | C=Cc1cnc(Nc2cc(C(C)C)c(N3CCC(N4CCN(C)CC4)CC3)cc2OC)nc1Nc1ccc2nccnc2c1P(C)(C)=O [Compound I-16] | 0.05 to 0.5 µM | 0.05 to 0.5 µM | 0.05 to 0.5 µM | 0.05 to 0.5 µM | 0.05 to 0.5 µM | 0.05 to 0.5 µM
11 | C=Cc1cnc(Nc2cc(C3CC3)c(N3CCC(N4CCN(C)CC4)CC3)cc2OC)nc1Nc1ccc2nccnc2c1P(C)(C)=O [Compound I-17] | 0.05 to 0.5 µM | 0.05 to 0.5 µM | 0.05 to 0.5 µM | 0.05 to 0.5 µM | 0.05 to 0.5 µM | 0.05 to 0.5 µM
12 | C=Cc1cnc(Nc2ccc(N3CCC(N4CCN(C)CC4)CC3)c(CC)c2)nc1Nc1ccc2nccnc2c1P(C)(C)=O [Compound I-18] | ≤ 0.05 µM | ≤ 0.05 µM | 0.05 to 0.5 µM | 0.05 to 0.5 µM | ≤ 0.05 µM | 0.05 to 0.5 µM
13 | C=C(C)c1cnc(Nc2ccc(N3CCC(N4CCN(C)CC4)CC3)nc2OC)nc1Nc1ccc2nccnc2c1P(C)(C)=O [Compound I-19] | 0.05 to 0.5 µM | 0.05 to 0.5 µM | ≤ 0.05 µM | 0.05 to 0.5 µM | 0.5 to 2.5 µM | ≤ 0.05 µM
14 | C=C(C)c1cnc(Nc2cc(C)c(N3CCC(N4CCN(C)CC4)CC3)nc2OC)nc1Nc1ccc2nccnc2c1P(C)(C)=O [Compound I-20] | 0.05 to 0.5 µM | 0.5 to 2.5 µM | 0.05 to 0.5 µM | 0.05 to 0.5 µM | 0.5 to 2.5 µM | 0.5 to 2.5 µM
15 | C=Cc1cnc(Nc2cccc(C3CCN(C)CC3)c2)nc1Nc1ccc2nccnc2c1P(C)(C)=O [Compound I-22] | 0.05 to 0.5 µM | 0.05 to 0.5 µM | ≤ 0.05 µM | 0.05 to 0.5 µM | 0.5 to 2.5 µM | 0.05 to 0.5 µM
16 | C=Cc1cnc(Nc2cc3c(cc2F)CCN(C)C3)nc1Nc1ccc2nccnc2c1P(C)(C)=O [Compound I-23] | 0.05 to 0.5 µM | 0.05 to 0.5 µM | 0.05 to 0.5 µM | 0.05 to 0.5 µM | 0.5 to 2.5 µM | 0.05 to 0.5 µM
17 | C=Cc1cnc(Nc2ccc3c(c2)CCN(C)CC3)nc1Nc1ccc2nccnc2c1P(C)(C)=O [Compound I-24] | ≤ 0.05 µM | 0.05 to 0.5 µM | 0.05 to 0.5 µM | 0.05 to 0.5 µM | 0.05 to 0.5 µM | 0.05 to 0.5 µM
18 | C=Cc1cnc(Nc2cc(CC)c(N3CCC(N(C)C)C3)cc2OC)nc1Nc1ccc2nccnc2c1N(C)S(C)(=O)=O (stereo not drawn) [II-3] | ≤ 0.05 µM | ≤ 0.05 µM | ≤ 0.05 µM | ≤ 0.05 µM | ≤ 0.05 µM | ≤ 0.05 µM

Next, values leading:

Row | GI50 [1] | GI50 [2] | GI50 [3] | GI50 [4] | GI50 [5] | GI50 [6] | Compound
19 | ≤ 0.05 µM | ≤ 0.05 µM | ≤ 0.05 µM | ≤ 0.05 µM | ≤ 0.05 µM | ≤ 0.05 µM | C=Cc1cnc(Nc2cc(CC)c(N3CCC(N4CCN(C)CC4)CC3)cc2OC)nc1Nc1ccc2nccnc2c1P(C)(C)=O [Compound I-1]
20 | ≤ 0.05 µM | ≤ 0.05 µM | ≤ 0.05 µM | ≤ 0.05 µM | ≤ 0.05 µM | 0.05 to 0.5 µM | C=Cc1cnc(Nc2cc(CC)c(N3CCC(N4CCN(C)CC4)CC3)cc2OC(F)(F)F)nc1Nc1ccc2nccnc2c1P(C)(C)=O [Compound I-6]
21 | ≤ 0.05 µM | ≤ 0.05 µM | ≤ 0.05 µM | ≤ 0.05 µM | ≤ 0.05 µM | ≤ 0.05 µM | C=Cc1cnc(Nc2cc(C)c(N3CCC(N4CCN(C)CC4)CC3)cc2OC)nc1Nc1ccc2nccnc2c1P(C)(C)=O [Compound I-9]
22 | ≤ 0.05 µM | 0.05 to 0.5 µM | 0.05 to 0.5 µM | 0.5 to 2.5 µM | 0.05 to 0.5 µM | ≤ 0.05 µM | CCc1cc(Nc2ncc(C=C(C)C)c(Nc3ccc4nccnc4c3P(C)(C)=O)n2)c(OC)cc1N1CCC(N2CCN(C)CC2)CC1 [Compound I-10]
23 | ≤ 0.05 µM | ≤ 0.05 µM | ≤ 0.05 µM | ≤ 0.05 µM | ≤ 0.05 µM | ≤ 0.05 µM | C=Cc1cnc(Nc2cc(CC)c(N3CCC(N4CCN(C)CC4)CC3)cc2OC)nc1Nc1ccc2nccnc2c1N(C)S(C)(=O)=O [II-1]
24 | ≤ 0.05 µM | ≤ 0.05 µM | ≤ 0.05 µM | ≤ 0.05 µM | ≤ 0.05 µM | ≤ 0.05 µM | C=Cc1cnc(Nc2cc(CC)c(N3CCC(N(C)C)CC3)cc2OC)nc1Nc1ccc2nccnc2c1N(C)S(C)(=O)=O [II-2]
25 | ≤ 0.05 µM | ≤ 0.05 µM | ≤ 0.05 µM | ≤ 0.05 µM | ≤ 0.05 µM | ≤ 0.05 µM | C=Cc1cnc(Nc2cc(CC)c(N3CCN(C)CC3)cc2OC)nc1Nc1ccc2nccnc2c1N(C)S(C)(=O)=O [II-4]
26 | 0.05 to 0.5 µM | 0.05 to 0.5 µM | ≤ 0.05 µM | ≤ 0.05 µM | 0.05 to 0.5 µM | 0.05 to 0.5 µM | C=Cc1cnc(Nc2cc(CC)c(N3CCC(N4CCN(C)CC4)CC3)nc2OC)nc1Nc1ccc2nccnc2c1N(C)S(C)(=O)=O [II-5]
27 | 0.05 to 0.5 µM | 0.05 to 0.5 µM | 0.05 to 0.5 µM | ≤ 0.05 µM | ≤ 0.05 µM | 0.05 to 0.5 µM | C=Cc1cnc(Nc2cc(CC)c(N3CCC(N4CCN(C)CC4)CC3)cc2OC(F)(F)F)nc1Nc1ccc2nccnc2c1N(C)S(C)(=O)=O [II-6]

From patent US12679822B2, “Alkenyl pyrimidine compound, preparation method therefor, and application thereof” (Hongyun Biotech Co., Ltd., priority 2020, dated 2026)
